The structures appear in SMILES notation. In brackets after ≈: the same amount, converted by molar mass. Where two headings read alike, the source gives them in different places.

The conditions of data set [1]: cited from earlier work.
The test system of a further data set is SAR-CoV-2. The settings on record: cited from earlier work.
In another data set the test system is SARS-CoV-2. To be noted: Pruijssers et al., 2020, cited from earlier work.
Data set [2] is described as follows: Solubility in simulated lung fluid (SLF). To be noted: for solubility in SLF: 25° C., 24 h. In kind it is physicochemical. On the procedure:
The composition and preparation of simulated lung fluid (SLF) were adapted from Hassoun's study (Hassoun et al., 2018). SLF contained dipalmitoylphosphotidylcholine (DPPC), cholesterol, albumin, transferrin, ascorbic acid and Hank's balanced salt solution (HBSS). The SLF was prepared by two steps including a preparation of liposomal dispersion and freeze drying as described in Hassoun et al. (Hassoun et al., 2018). In the first step, a liposomal dispersion was prepared by mixing 2.12 mL of 25 mg/mL DPPC and 5 μL of 200 mg/mL cholesterol in chloroform. Then, the solution was dried using an evaporator until the dry film was obtained. The thin film of lipid was dispersed by adding 8 mL of 57 mg/mL bovine serum albumin in water, 1 mL of 15 mg/mL transferrin in water, and 88.5 μL of 10 mM ascorbate solution. The mixture was sonicated until it fully dispersed. The dispersion was adjusted to 10 mL by adding 1M HBSS). The dispersion was frozen at −20° C. for 6 h, and primary dried in the lyophilizer at −40° C. for 30 h and ramp to 25° C. for 12 h and finally secondary dried at 25° C. for 20 h. The lyophilized SLF was stored at 2-8° C. and reconstituted with purified water upon solubility and dissolution testing.
The excess amount of powder was added in SLF until precipitation occurred. Then the samples were shaken on the orbital shaker at 250 rpm and 25° C. for 24 h. The samples were collected and centrifuged at 13,000 rpm for 15 min. The supernatants were collected and then diluted with DMSO/acetonitrile (10/90). The samples were centrifuged again at 13,000 rpm for 15 min to separate proteins in SLF. The supernatants were collected and analyzed by HPLC.

For data set [3] the following is noted: rats; cited from earlier work.

Consider `N#C[C@@]1(c2ccc3c(N)ncnn23)O[C@H](CO)[C@@H](O)[C@H]1O` [GS-441524], for which the half-life entry in data set [1] (human, in vivo, iv) was “approximately 24.5 h”. The EC50 in the data set with SAR-CoV-2 (human airway epithelial (HAE), Agostini et al., 2018) was 0.05243 µg/mL; with SAR-CoV-2 (read-out: EC50) it was 180 nM; in the data set on SARS-CoV-2 (Calu3 2B4 cells, read-out: EC50) it was 620 nM; with SARS-CoV-2 (Calu-3 2B4 cells), 0.1806 µg/mL.

In the case of `CCC(CC)COC(=O)[C@H](C)N[P@](=O)(OC[C@H]1O[C@@](C#N)(c2ccc3c(N)ncnn23)[C@H](O)[C@@H]1O)Oc1ccccc1` [crystalline remdesivir, remdesivir], the “solubility in SLF” value in data set [2] is 30 ± 1 µg/mL (≈ 49.8 µM).

With `CCC(CC)COC(=O)[C@H](C)N[P@](=O)(OC[C@H]1O[C@@](C#N)(c2ccc3c(N)ncnn23)[C@H](O)[C@@H]1O)Oc1ccccc1` [amorphous remdesivir, remdesivir], in data set [2], the “increase in solubility compared to crystalline neat remdesivir” value is given as 20 fold, the “solubility of amorphous versus crystalline remdesivir” value is recorded as “about 20 times” and the “solubility in SLF” value was 590 ± 10 µg/mL (≈ 979 µM).

For the molecule `CCC(CC)COC(=O)[C@H](C)N[P@](=O)(OC[C@H]1O[C@@](C#N)(c2ccc3c(N)ncnn23)[C@H](O)[C@@H]1O)Oc1ccccc1` [remdesivir], the “half-life of remdesivir in plasma” value in data set [3] was “less than 0.9 min”. Moreover, the half-life entry in data set [1] (humans, multiple IV administrations once a day) is on record as “about 1 h”.

What is called EC50 is the midpoint of the concentration-response curve.
